# Assay results published in US20120134940A1, “NANODISPERSIONS” (priority 2006, published 2012).
# Settings: payload material itself
# From the text: By selection of a carrier which is also soluble in both DMSO and one of water, ethanol and PPG (for example PVP/HPC) it is possible to obtain a nano-disperse form of either payload material in the carrier, which can be “dissolved” in water, ethanol or PPG.
smiles,measurement,value
COc1cc(C=O)cc(-c2cc(C=O)cc(OC)c2O)c1O [divanillin],solubility in DMSO,soluble
same,"solubility in water, ethanol and poly-propylene glycol",insoluble
